Experimental data: US8263585B2, “Organic compounds” (Novartis AG, priority 2007, dated 2012)
pIC50: −log10 of the molar value.

Molecular target: T1, human PI 3-Kγ (Homo sapiens, UniProt P48736)
T1 construct: Residues 38-1102 of human PI 3-Kγ are subcloned; made in house; host or cells: Sf9 (Spodoptera frugiperda) insect cells, baculovirus
Test: in vitro kinase assay (Scintillation Proximity Assay): transfer of terminal phosphate of ATP to phosphatidylinositol
Assay type: biochemical
Conditions: recombinant GST-p110γ, 12.5 μM ATP assay mix, 60 minutes room temperature
Text: Baculovirus expressing different fragments of human PI 3-Kγ fused to glutathione S-transferase (GST) have been previously described by Stoyanova, S., Bulgarelli-Leva, G., Kirsch, C., Hanck, T., Klinger, R., Wetzker, R., Wymann, M. P. (1997) Lipid- and protein kinase activities of G protein-coupled PI 3-kinase g: structure-activity analysis and interactions with wortmannin. Biochem. J., 324:489. Residues 38-1102 of human PI 3-Kγ are subcloned into the BamH1 and EcoR1 sites of the transfer vector pAcG2T (Pharmingen) to create a GST-PI 3-Kγ lacking the first 37 residues of PI 3-Kγ. To express the recombinant protein, Sf9 (Spodoptera frugiperda 9) insect cells are routinely maintained at densities between 3×10^5 and 3×10^6 cells/ml in serum containing TNMFH medium (Sigma). Sf9 cells, at a density of 2×10^6 are infected with human […] baculovirus at a multiplicity of infection (m.o.i.) of 1 for 72 hours. The infected cells are harvested by centrifugation at 1400 g for 4 minutes at 4° C. and the cell pellets are frozen at −80° C. Both Sf9 and Sf21 cells work equally well. Sf9 cells (1×10^9) are resuspended in 100 ml cold (4° C.) lysis buffer (50 mM Tris-HCl pH 7.5, 1% Triton X-100, 150 mM NaCl, 1 mM NaF, 2 mM DTT and protease inhibitors. Cells are incubated on ice for 30 minutes then centrifuged at 15000 g for 20 minutes at 4° C. Purification of the supernatant sample is carried out at 4° C. by affinity chromatography using SEPHAROSE™ agarose gel beads coupled to glutathione (from Amersham Pharmacia Biotech). A cell lysate/GST resin ratio of 50:1 is used. The GST resin is firstly pre-rinsed to remove ethanol preservative and then equilibrated with lysis buffer. Cell lysate (supernatant) is added (usually as 50 ml lysate to 1 ml GST resin in 50 ml tubes) and gently rotated on a mixer at 4° C. for 2-3 hours. The unbound flow through sample is collected by centrifugation at 1000 g for 5 minutes at 4° C. using a DENLEY™ centrifuge. The 1 ml GST resin containing bound material is transferred to a 15 ml FALCON™ centrifuge tube for subsequent washing and elution steps. Firstly a series of 3 cycles of washings (mixing by gentle inversion) is performed with 15 ml ice cold wash Buffer A (50 mM Tris-HCl pH 7.5, 1% Triton X-100, 2 mM DTT) interspersed with centrifugation at 1000 g for 5 minutes at 4° C. A final single wash step is performed with 15 ml ice cold wash Buffer B (50 mM Tris-HCl pH 7.5, 2 mM DTT) and then centrifuged at 1050 g for 5 minutes at 4° C. The washed GST resin is finally eluted with 4 cycles of 1 ml ice cold elution buffer (50 mM Tris-HCl pH 7.5, 10 mM reduced glutathione, 2 mM DTT, 150 mM NaCl, 1 mM NaF, 50% ethylene glycol and protease inhibitors) interspersed with centrifugation at 1000 g for 5 minutes at 4° C. Samples are aliquoted and stored at −20° C.
An in vitro kinase assay was established that measures the transfer of the terminal phosphate of adenosine triphosphate to phosphatidylinositol. The kinase reaction is performed in a white 96 well microtitre plate as a Scintillation Proximity Assay. Each well contains 10 μl test compound in 5% dimethylsulphoxide and 20 μl assay mix (40 mM Tris, 200 mM NaCl, 2 mM ethyleneglycol-aminoethyl-tetraacetic acid (EGTA), 15 μg/ml phosphatidylinositol, 12.5 μM adenosine triphosphate (ATP), 25 mM MgCl2, 0.1 μCi [^33P]ATP). The reaction is started by the addition of 20 μl of enzyme mix (40 mM Tris, 200 mM NaCl, 2 mM EGTA containing recombinant GST-p110γ). […]

T1 sequence (P48736 38-1102): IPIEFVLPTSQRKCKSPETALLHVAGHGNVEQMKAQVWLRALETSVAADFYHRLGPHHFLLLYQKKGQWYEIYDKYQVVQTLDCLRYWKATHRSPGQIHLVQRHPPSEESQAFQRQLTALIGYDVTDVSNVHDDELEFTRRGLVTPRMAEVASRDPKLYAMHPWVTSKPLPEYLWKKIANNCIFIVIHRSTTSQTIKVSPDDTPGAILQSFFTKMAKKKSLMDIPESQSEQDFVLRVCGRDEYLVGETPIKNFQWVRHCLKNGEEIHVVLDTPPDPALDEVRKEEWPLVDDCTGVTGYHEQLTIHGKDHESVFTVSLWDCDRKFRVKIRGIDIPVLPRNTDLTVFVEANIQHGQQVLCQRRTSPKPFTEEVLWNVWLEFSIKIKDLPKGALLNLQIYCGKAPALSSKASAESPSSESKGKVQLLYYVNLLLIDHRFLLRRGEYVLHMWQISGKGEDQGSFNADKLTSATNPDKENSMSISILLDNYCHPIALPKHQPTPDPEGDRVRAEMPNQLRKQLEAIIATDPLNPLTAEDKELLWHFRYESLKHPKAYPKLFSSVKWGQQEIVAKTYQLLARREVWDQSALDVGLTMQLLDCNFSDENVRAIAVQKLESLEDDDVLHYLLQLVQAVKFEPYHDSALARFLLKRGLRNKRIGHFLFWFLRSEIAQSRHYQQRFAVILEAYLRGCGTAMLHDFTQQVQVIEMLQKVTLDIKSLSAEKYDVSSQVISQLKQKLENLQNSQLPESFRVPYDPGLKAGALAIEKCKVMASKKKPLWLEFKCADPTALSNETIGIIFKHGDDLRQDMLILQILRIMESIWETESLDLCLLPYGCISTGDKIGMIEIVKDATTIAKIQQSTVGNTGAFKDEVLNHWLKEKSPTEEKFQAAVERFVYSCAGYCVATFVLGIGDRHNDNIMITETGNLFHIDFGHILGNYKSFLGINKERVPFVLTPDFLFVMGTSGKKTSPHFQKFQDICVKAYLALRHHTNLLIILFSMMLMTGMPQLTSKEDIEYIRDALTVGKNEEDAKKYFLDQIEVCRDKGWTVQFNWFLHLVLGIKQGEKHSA

SMILES	pIC50
Cc1nc(N)ncc1-c1ccc(Cl)c(S(=O)(=O)Nc2ccccc2)c1 [Example 1-1, 5-(2-Amino-4-methyl-pyrimidin-5-yl)-2-chloro-N-phenyl-benzenesulfonamide]	8.40
Cc1nc(N)ncc1-c1ccc(Cl)c(S(=O)(=O)N(C)C)c1 [Example 1-15, 5-(2-Amino-4-methyl-pyrimidin-5-yl)-2-chloro-N2N-dimethyl-benzenesulfonamide]	6.62
Cc1nc(N)ncc1-c1ccc(Cl)c(NS(=O)(=O)c2ccccc2)c1 [Example 1-50, N-[5-(2-Amino-4-methyl-pyrimidin-5-yl)-2-chloro-phenyl]-benzenesulfonamide]	7.30
Cc1nc(N)ncc1-c1ccnc(C(C)(C)C)n1 [Example 2-1, 2-tert-Butyl-4′-methyl-[4,5′]bipyrimidinyl-2′-ylamine]	6.65
Cc1nc(N)ncc1-c1ccc(Cl)c(S(=O)(=O)N[C@H]2CC[C@@H](NC(=O)OC(C)(C)C)CC2)c1 [Example 3-17, cis-{4-[5-(2-Amino-4-methyl-pyrimidin-5-yl)-2-chloro-benzenesulfonylamino]-cyclohexyl}-carbamic acid tert-butyl ester]	6.52
Cc1nc(N)ncc1-c1ccc(Cl)c(NS(=O)(=O)c2cccc(Cl)c2)c1 [Example 3-35, N-[5-(2-Amino-4-methyl-pyrimidin-5-yl)-2-chloro-phenyl]-3-chloro-benzene sulfonamide]	7.80

Next, values leading:

pIC50	SMILES
6.87	Cc1nc(N)ncc1-c1ccc(Cl)c(S(=O)(=O)N2CC(O)C2)c1 [Example 1-30, 1-[5-(2-Amino-4-methyl-pyrimidin-5-yl)-2-chloro-benzenesulfonyl]-azetidin-3-ol]
6.66	Cc1nc(N)ncc1-c1ccc(Cl)c(S(=O)(=O)NC2CC2)c1 [Example 3-1, 5-(2-Amino-4-methyl-pyrimidin-5-yl)-2-chloro-N-cyclopropyl-benzenesulfonamide]
6.97	Cc1nc(N)ncc1-c1ccc(C(F)(F)F)c(S(=O)(=O)N[C@@H]2CCC[C@@H]2O)c1 [Example 3-53, 5-(2-Amino-4-methyl-pyrimidin-5-yl)-N-((1R,2S)-2-hydroxy-cyclopentyl)-2-trifluoromethyl-benzenesulfonamide]
